According to patent publication US20240400555A1 (Initial Therapeutics, Inc., priority 2023, published 2024):
pIC50: −log10 of the molar value.

system: HCT-116 Firefly-luciferase reporter cells; assay: Cellular c-MYC Reporter Assay; format: cell-based; conditions: Homo sapiens; untitled table following Table 8a; HCT-116 Firefly-luciferase reporter cells, 24 h; read-out: pIC50 (converted)
Experimental: HCT-116 Firefly-luciferase reporter cells (BPS Bioscience) were seeded in 96-well tissue-culture treated sterile plates (Greiner Bio-One) at 5e4 cells/mL in 100 μL complete growth media (McCoy's 5A+10% FBS, +1% Pen-Strep, +1% G418). Cells were incubated at 37° C. with 5% CO2 for 4-6 h then treated with 3× compound solution in 50 μL complete growth media for a final volume of 150 μL per well with 0.2% DMSO. After 24 h incubation at 37° C. with 5% CO2, plates were allowed to equilibrate to RT for 20 min then developed by addition of 100 μL ONE-Glo Luciferase detection reagent (Promega), incubated at RT for 10 min. Luminescence was recorded using a SpectraMax i3x plate reader (Molecular Devices) and analyzed using Prism GraphPad 9 software.

Row | IC50 [nM] | Compound
1 | 513 | Cc1cccc2ccnc(N(C(=O)c3ccc(-c4cn(C)nn4)cc3)[C@@H]3CCCNC3)c12 [Example 111, (R)-4-(1-methyl-1H-1,2,3-triazol-4-yl)-N-(8-methylisoquinolin-1-yl)-N-(piperidin-3-yl) benzamide]
2 | 380 | Cn1cnc(-c2cccnc2N(C(=O)c2ccc(-n3nnc4cccnc43)cc2F)[C@@H]2CCCNC2)c1 [Example 112, (R)-4-(3H-[1,2,3]triazolo[4,5-b]pyridin-3-yl)-2-fluoro-N-(3-(1-methyl-1H-imidazol-4-yl)pyridin-2-yl)-N-(piperidin-3-yl)benzamide]
3 | 6030 | Cc1cccc2ccnc(N(C(=O)c3ccc(N4CC(C)NC4=O)cc3F)[C@@H]3CCCNC3)c12 (stereo partly drawn) [Example 172, 2-fluoro-4-(4-methyl-2-oxoimidazolidin-1-yl)-N-(8-methylisoquinolin-1-yl)-N—((R)-piperidin-3-yl)benzamide]
4 | 776 | O=C(c1ccc(-n2nnc3cccnc32)cc1F)N(c1nccc2sc(Br)cc12)[C@@H]1CCCNC1 [Example 162, (R)-4-(3H-[1,2,3]triazolo[4,5-b]pyridin-3-yl)-N-(2-bromothieno[3,2-c]pyridin-4-yl)-2-fluoro-N-(piperidin-3-yl)benzamide]
5 | 5130 | CCOC(=O)c1cc(C2CCN(C(=O)N(c3nccc4cccc(C)c34)[C@@H]3CCCNC3)CC2)on1 [Example 279, ethyl (R)-5-(1-((8-methylisoquinolin-1-yl)(piperidin-3-yl)carbamoyl)piperidin-4-yl)isoxazole-3-carboxylate]
6 | 759 | CCOC(=O)/C=C/c1ccc2c(N(C(=O)c3ccc(-n4nnc5cccnc54)cc3F)[C@@H]3CCCNC3)nccc2c1 [Example 98, ethyl (R,E)-3-(1-(4-(3H-[1,2,3]triazolo[4,5-b]pyridin-3-yl)-2-fluoro-N-(piperidin-3-yl)benzamido)isoquinolin-6-yl)acrylate]
7 | > 20000 | Cc1cccc2ccnc(N(C(=O)c3ccc(-c4n[nH]c5c4CNCC5)cc3F)[C@@H]3CCCNC3)c12 [Example 296, (R)-2-fluoro-N-(8-methylisoquinolin-1-yl)-N-(piperidin-3-yl)-4-(4,5,6,7-tetrahydro-1H-pyrazolo[4,3-c]pyridin-3-yl)benzamide]
8 | 195 | CCCc1nnn(-c2ccc(C(=O)N(c3nccc4cccc(C)c34)[C@@H]3CCCNC3)c(F)c2)n1 [Example 286, (R)-2-fluoro-N-(8-methylisoquinolin-1-yl)-N-(piperidin-3-yl)-4-(5-propyl-2H-tetrazol-2-yl) benzamide]
9 | 646 | CNC(=O)c1cccnc1N(C(=O)c1ccc(-n2nnc3cccnc32)cc1F)[C@@H]1CCCNC1 [Example 213, (R)-2-(4-(3H-[1,2,3]triazolo[4,5-b]pyridin-3-yl)-2-fluoro-N-(piperidin-3-yl)benzamido)-N-methylnicotinamide]
10 | 437 | O=C(c1ccc(Nc2ncccn2)cc1F)N(c1nccc2cccc(Cl)c12)[C@@H]1CCCNC1 [Example 272, (R)—N-(8-chloroisoquinolin-1-yl)-2-fluoro-N-(piperidin-3-yl)-4-(pyrimidin-2-ylamino)benzamide]
11 | 5500 | Cc1cccc2ccnc(N(C(=O)N3CCCC(C4CCC4)CC3)[C@@H]3CCCNC3)c12 (stereo partly drawn) [Example 261, 4-cyclobutyl-N-(8-methylisoquinolin-1-yl)-N—((R)-piperidin-3-yl)azepane-1-carboxamide]
12 | 490 | COC(=O)c1ccc2c(N(C(=O)c3ccc(-n4nnc5cccnc54)cc3F)[C@@H]3CCCNC3)nccc2c1 [Example 117, methyl (R)-1-(4-(3H-[1,2,3]triazolo[4,5-b]pyridin-3-yl)-2-fluoro-N-(piperidin-3-yl)benzamido)isoquinoline-6-carboxylate]
13 | 60.3 | Cc1cccc2ccnc(N(C(=O)c3ccc(-n4nnc5cccnc54)cc3)[C@@H]3CCCNC3)c12 [Example 241, (R)-4-(3H-[1,2,3]triazolo[4,5-b]pyridin-3-yl)-N-(8-methylisoquinolin-1-yl)-N-(piperidin-3-yl)benzamide]
14 | 93.3 | COc1cccc2ccnc(N(C(=O)c3ccc(-n4nnc5cccnc54)cc3F)[C@@H]3CCCNC3)c12 [Example 222, (R)-4-(3H-[1,2,3]triazolo[4,5-b]pyridin-3-yl)-2-fluoro-N-(8-methoxyisoquinolin-1-yl)-N-(piperidin-3-yl)benzamide]
15 | 2000 | Cc1cccc2ccnc(N(C(=O)N3CCN(c4nncc5ccccc45)CC3)[C@@H]3CCCNC3)c12 [Example 270]
16 | 72.4 | Cc1nnn(-c2ccc(C(=O)N(c3nccc4cccc(C)c34)[C@@H]3CCCNC3)cc2)n1 [Example 179, (R)-4-(5-methyl-2H-tetrazol-2-yl)-N-(8-methylisoquinolin-1-yl)-N-(piperidin-3-yl)benzamide]
17 | 1910 | Cc1cccc2ccnc(N(C(=O)c3ccc(Nc4cccn(C)c4=O)cc3F)[C@@H]3CCCNC3)c12 [Example 131, (R)-2-fluoro-4-((1-methyl-2-oxo-1,2-dihydropyridin-3-yl)amino)-N-(8-methylisoquinolin-1-yl)-N-(piperidin-3-yl)benzamide]
18 | 3800 | Cc1cccc2ccnc(N(C(=O)c3ccc(Nc4ncccc4N)cc3F)[C@@H]3CCCNC3)c12 [Example 274, (R)-4-((3-aminopyridin-2-yl)amino)-2-fluoro-N-(8-methylisoquinolin-1-yl)-N-(piperidin-3-yl)benzamide]
19 | 339 | Cc1nnc(-c2ccc(C(=O)N(c3nccc4cccc(C)c34)[C@@H]3CCCNC3)c(F)c2)s1 [Example 127, (R)-2-fluoro-4-(5-methyl-1,3,4-thiadiazol-2-yl)-N-(8-methylisoquinolin-1-yl)-N-(piperidin-3-yl) benzamide]
20 | 1260 | O=C(c1ccc(-c2cccc3cnccc23)cc1F)N(c1cc2ccccc2cn1)[C@@H]1CCCNC1 [Example 291, (R)-2-fluoro-N-(isoquinolin-3-yl)-4-(isoquinolin-5-yl)-N-(piperidin-3-yl)benzamide]
21 | 263 | Cc1cc(C2CCN(C(=O)N(c3nccc4cccc(C)c34)[C@@H]3CCCNC3)CC2)ccn1 [Example 199, (R)—N-(8-methylisoquinolin-1-yl)-4-(2-methylpyridin-4-yl)-N-(piperidin-3-yl)piperidine-1-carboxamide]

system: MV-4-11 cells; assay: Cell Viability Assay in MV-4-11 Cells; format: cell-based; conditions: Homo sapiens, MV4-11, 72 h, MV-4-11 cells, 72 h, Cell-Titer Glo; read-out: IC50
Method in brief: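 Luminescent ATP read-out (CellTiter-Glo) after 72 h compound treatment of MV-4-11 leukaemia cells (7,000 per well, IMDM plus 10% FBS). Values expressed relative to DMSO control and derived by four-parameter non-linear regression.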

Row | pIC50 | Compound
22 | 6.36 | CC(C)(O)c1ccc(-c2cc3c(N(C(=O)c4ccc(-n5nnc6cccnc65)cc4F)[C@@H]4CCCNC4)nccc3s2)cc1 [Example 585, (R)-4-(3H-[1,2,3]triazolo[4,5-b]pyridin-3-yl)-2-fluoro-N-(2-(4-(2-hydroxypropan-2-yl)phenyl)thieno[3,2-c]pyridin-4-yl)-N-(piperidin-3-yl)benzamide]
23 | 6.34 | Cn1cc(-c2ccc(C(=O)N(c3nccc4cc(-c5ccnc(N)c5)ccc34)[C@@H]3CCCNC3)c(F)c2)nn1 [Example 491, (R)—N-(6-(2-aminopyridin-4-yl)isoquinolin-1-yl)-2-fluoro-4-(1-methyl-1H-1,2,3-triazol-4-yl)-N-(piperidin-3-yl)benzamide]
24 | 6.96 | Cc1ccc(F)c2ccnc(N(C(=O)c3ccc(-c4cnn5cccnc45)cc3F)[C@@H]3CCCNC3)c12 [Example 626, (R)-2-fluoro-N-(5-fluoro-8-methylisoquinolin-1-yl)-N-(piperidin-3-yl)-4-(pyrazolo[1,5-a]pyrimidin-3-yl)benzamide]
25 | 7.22 | Cc1cc(C)c2c(N(C(=O)c3ccc(-c4cn(C)nn4)cn3)[C@@H]3CCCNC3)nccc2c1 [Example 703, (R)—N-(6,8-dimethylisoquinolin-1-yl)-5-(1-methyl-1H-1,2,3-triazol-4-yl)-N-(piperidin-3-yl)picolinamide]
26 | 5.66 | Cc1cccc2ccnc(N(C(=O)c3ccc(Nc4ccccn4)nc3)[C@@H]3CCCNC3)c12 [Example 843, (R)—N-(8-methylisoquinolin-1-yl)-N-(piperidin-3-yl)-6-(pyridin-2-ylamino)nicotinamide]
27 | < 5.00 | O=C(O)/C=C/c1ccc2c(N(C(=O)c3ccc(-n4nnc5cccnc54)cc3F)[C@@H]3CCCNC3)nccc2c1 [Example 406, (R,E)-3-(1-(4-(3H-[1,2,3]triazolo[4,5-b]pyridin-3-yl)-2-fluoro-N-(piperidin-3-yl)benzamido)isoquinolin-6-yl)acrylic acid]
28 | 5.85 | Cc1cccc2ccnc(N(C(=O)N3CCc4[nH]nc(-c5ccccc5)c4C3)[C@@H]3CCCNC3)c12 [Example 343, (R)—N-(8-methylisoquinolin-1-yl)-3-phenyl-N-(piperidin-3-yl)-1,4,6,7-tetrahydro-5H-pyrazolo[4,3-c]pyridine-5-carboxamide]
29 | 6.06 | Cn1cc(-c2ccc(C(=O)N(c3nccc4sc(-c5cnccn5)cc34)[C@@H]3CCCNC3)c(F)c2)nn1 [Example 482]
30 | 6.80 | Cc1cccc2ccnc(N(C(=O)c3ccc(Nc4nccc(N(C)CCO)n4)cc3F)[C@@H]3CCCNC3)c12 [Example 743, (R)-2-fluoro-4-((4-((2-hydroxyethyl)(methyl)amino)pyrimidin-2-yl)amino)-N-(8-methylisoquinolin-1-yl)-N-(piperidin-3-yl)benzamide]
31 | 7.07 | CC(=O)c1ccc2c(N(C(=O)c3ccc(-c4cn(C)nn4)cc3F)[C@@H]3CCCNC3)nccc2c1 [Example 610, (R)—N-(6-acetylisoquinolin-1-yl)-2-fluoro-4-(1-methyl-1H-1,2,3-triazol-4-yl)-N-(piperidin-3-yl)benzamide]
